Test results: patent US9434711B2 (Janssen Pharmaceutica, NV, priority 2007, dated 2016)
“And” between values parts separate entries of the source, which are not always exact repeats. Identical values can stand only once. Like-named read-outs stand apart in the source and are kept apart here.

Experiments:
canine TRPM8 = canine TRPM8 (Canis lupus familiaris, UniProt Q1A7N1); assay: In Vitro Canine TRPM8 Functional Assay (Ca2+ fluorescence, icilin activation); type: cell-based; details: for IC50: HEK293 cells stably expressing canine TRPM8, icilin activation, eight-point dose-response, read-out: IC50; for inhibition at 0.2 µM: compound at 0.2 μM, canine TRPM8, icilin activation, read-out: % Inh @ 0.2
Chain of canine TRPM8 (Q1A7N1 1-1104): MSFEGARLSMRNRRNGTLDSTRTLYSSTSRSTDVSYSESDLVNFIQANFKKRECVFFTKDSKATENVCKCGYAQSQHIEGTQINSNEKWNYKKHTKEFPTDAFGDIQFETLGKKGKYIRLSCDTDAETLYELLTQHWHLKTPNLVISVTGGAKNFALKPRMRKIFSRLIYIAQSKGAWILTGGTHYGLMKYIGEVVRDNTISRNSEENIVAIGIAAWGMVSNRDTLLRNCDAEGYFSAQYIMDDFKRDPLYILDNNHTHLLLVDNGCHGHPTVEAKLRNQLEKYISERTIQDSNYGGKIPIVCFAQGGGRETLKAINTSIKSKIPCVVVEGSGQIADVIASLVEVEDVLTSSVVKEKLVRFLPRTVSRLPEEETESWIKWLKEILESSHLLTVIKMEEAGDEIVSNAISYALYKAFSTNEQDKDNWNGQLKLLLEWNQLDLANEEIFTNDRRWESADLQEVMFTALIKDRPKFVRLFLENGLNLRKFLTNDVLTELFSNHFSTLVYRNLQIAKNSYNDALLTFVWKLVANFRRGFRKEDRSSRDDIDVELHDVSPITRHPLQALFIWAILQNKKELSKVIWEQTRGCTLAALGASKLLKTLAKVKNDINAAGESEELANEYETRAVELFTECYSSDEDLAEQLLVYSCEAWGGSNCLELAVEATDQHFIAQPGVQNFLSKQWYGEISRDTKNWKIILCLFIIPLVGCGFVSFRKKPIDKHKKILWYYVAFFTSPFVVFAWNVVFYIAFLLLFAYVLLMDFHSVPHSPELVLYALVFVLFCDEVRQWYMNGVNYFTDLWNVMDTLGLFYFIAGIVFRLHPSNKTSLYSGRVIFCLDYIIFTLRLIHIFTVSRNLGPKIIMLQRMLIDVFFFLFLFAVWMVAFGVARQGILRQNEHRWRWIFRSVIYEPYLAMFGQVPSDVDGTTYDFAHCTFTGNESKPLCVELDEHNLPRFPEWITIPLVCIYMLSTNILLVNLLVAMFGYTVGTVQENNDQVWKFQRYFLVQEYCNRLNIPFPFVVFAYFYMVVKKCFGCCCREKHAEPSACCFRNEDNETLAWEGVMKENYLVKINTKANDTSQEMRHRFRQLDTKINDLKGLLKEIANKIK
Method in brief: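 Cells (HEK293, stable canine TRPM8) are seeded 24 h before assay. They are then dye-loaded with Calcium 3 at 37 °C followed by room temperature. Compound is added and monitored for 5 min, after which icilin (~80% maximal response) is added.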

rat TRPM8 = rat TRPM8 (Rattus norvegicus (Rat), UniProt Q8R455); assay: In Vitro Rat TRPM8 Functional Assay (Ca2+ fluorescence, icilin EC80); type: cell-based; details: read-out: rTRPM8 IC50
Chain of rat TRPM8 (Q8R455 whole entry): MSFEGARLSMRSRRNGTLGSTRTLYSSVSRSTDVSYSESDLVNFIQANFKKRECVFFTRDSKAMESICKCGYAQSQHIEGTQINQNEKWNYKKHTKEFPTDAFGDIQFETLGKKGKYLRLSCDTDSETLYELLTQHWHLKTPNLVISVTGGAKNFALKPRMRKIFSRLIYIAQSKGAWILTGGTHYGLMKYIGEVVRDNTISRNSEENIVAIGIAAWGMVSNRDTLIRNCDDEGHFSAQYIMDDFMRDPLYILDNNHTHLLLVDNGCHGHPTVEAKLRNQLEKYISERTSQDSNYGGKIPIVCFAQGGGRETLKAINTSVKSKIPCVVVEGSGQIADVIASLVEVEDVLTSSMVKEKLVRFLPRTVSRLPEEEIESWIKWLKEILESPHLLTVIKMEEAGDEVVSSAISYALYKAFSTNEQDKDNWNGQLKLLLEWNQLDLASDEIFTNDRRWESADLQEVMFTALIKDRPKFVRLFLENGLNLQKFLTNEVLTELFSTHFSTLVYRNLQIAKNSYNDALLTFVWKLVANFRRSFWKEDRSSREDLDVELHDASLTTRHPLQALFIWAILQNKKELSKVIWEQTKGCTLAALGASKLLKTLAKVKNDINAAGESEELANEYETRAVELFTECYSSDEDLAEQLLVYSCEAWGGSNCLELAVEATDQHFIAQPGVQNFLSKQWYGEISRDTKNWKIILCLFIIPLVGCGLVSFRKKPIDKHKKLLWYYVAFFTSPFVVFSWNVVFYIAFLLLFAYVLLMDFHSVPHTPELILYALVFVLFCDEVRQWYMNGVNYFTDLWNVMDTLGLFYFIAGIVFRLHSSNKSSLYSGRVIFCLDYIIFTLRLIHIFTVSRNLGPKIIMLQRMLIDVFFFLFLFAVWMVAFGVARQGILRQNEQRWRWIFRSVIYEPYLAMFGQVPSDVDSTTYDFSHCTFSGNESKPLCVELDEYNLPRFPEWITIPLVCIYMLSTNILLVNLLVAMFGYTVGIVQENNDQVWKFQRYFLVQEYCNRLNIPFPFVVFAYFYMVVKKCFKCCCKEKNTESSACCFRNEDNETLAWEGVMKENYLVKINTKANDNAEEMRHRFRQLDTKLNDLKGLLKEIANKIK
Experimental: (§1) HEK293 cells are routinely grown as monolayer in Dulbecco's minimum essential medium supplemented with 10% FBS, 1 mM L-glutamine, 100 units/mL penicillin and 100 ug/mL streptomycin. Cells are maintained in 5% CO2 at 37° C.
(§2) For functional expression of TRPM8, the full-length cDNA encoding human and rat TRPM8 are subcloned into pCI-NEO mammalian expression vectors. The expression constructs are transiently transfected into HEK293 cells according to the FuGENE 6 Transfection Reagent® (ROCHE) instructions. Within twenty-four hours, transiently transfected cells are harvested and either seeded directly into assay plate or cryopreserved for future usage. […]
(§3) Maximal fluorescence intensity (FI) achieved upon addition of icilin is exported from the FDSS and further analyzed using GraphPad Prism 3.02 (Graph Pad Software Inc., CA, U.S.A.) where data is normalized to percent of maximal response. The dose response curves from the average of quadruplicate wells for each data point are analyzed by using nonlinear regression of either sigmoidal dose response or sigmoidal dose response (variable slope). Finally, the IC50 values are calculated with the best-fit dose curve determined by Prism.

human TRPM8 = human TRPM8 (Homo sapiens (Human), UniProt Q7Z2W7); assay: In Vitro Human TRPM8 Functional Assay (Ca2+ fluorescence, icilin EC80); type: cell-based; details: read-out: hTRPM8 IC50
Chain of human TRPM8 (Q7Z2W7 whole entry): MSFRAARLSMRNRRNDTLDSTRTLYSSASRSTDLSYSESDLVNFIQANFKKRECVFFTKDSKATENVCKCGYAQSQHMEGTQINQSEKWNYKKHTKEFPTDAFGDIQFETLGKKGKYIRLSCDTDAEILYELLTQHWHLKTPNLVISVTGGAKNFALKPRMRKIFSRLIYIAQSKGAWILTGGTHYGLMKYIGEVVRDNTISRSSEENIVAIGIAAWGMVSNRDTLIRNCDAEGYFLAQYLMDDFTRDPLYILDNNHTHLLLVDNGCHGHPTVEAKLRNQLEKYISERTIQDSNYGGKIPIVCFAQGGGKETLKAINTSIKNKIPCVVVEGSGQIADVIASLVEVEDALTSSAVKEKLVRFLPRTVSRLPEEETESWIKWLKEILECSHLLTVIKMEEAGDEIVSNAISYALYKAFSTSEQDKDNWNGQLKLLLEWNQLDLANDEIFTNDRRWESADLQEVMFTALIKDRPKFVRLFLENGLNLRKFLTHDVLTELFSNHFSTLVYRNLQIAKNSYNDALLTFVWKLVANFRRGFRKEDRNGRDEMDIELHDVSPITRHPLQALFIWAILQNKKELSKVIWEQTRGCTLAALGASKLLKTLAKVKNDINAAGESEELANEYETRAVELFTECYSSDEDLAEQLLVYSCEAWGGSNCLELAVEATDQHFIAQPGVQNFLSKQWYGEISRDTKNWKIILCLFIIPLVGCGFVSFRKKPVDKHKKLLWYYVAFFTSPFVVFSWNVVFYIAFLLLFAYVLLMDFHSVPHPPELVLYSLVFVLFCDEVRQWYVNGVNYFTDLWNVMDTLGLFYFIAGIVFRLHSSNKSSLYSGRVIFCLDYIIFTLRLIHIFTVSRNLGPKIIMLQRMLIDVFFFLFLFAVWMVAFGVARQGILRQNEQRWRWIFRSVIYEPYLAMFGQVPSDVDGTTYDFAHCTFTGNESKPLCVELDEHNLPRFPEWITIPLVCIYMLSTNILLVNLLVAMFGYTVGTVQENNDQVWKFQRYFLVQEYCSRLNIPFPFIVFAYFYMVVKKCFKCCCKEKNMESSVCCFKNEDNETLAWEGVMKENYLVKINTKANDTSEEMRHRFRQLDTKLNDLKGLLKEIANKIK
Experimental: as §1, §2, §3

Sprague-Dawley rats = assay: CFA-Induced Paw Radiant Heat Hypersensitivity; type: in vivo, rat; details: HPbCD, Na salt form
Experimental: Intraplantar injection of complete Freund's adjuvant (CFA) in rodents results in a long-lasting inflammatory reaction, characterized by a pronounced hypersensitivity to both thermal and mechanical stimuli. This hypersensitivity peaks between 24-72 hours following injection and can last for several weeks. To assess whether test compounds of the formula (I) reverse established hypersensitivity, a 100 μL intraplantar injection of CFA (suspended in a 1:1 emulsion of saline and heat-killed Mycobacterium tuberculosis in mineral oil) can be injected into a single hind paw of Sprague-Dawley rats (typically males ranging from 150-350 g). This paradigm also may be conducted with a multiple dosing or a prophylactic dosing regime designed to alter the course of hyperalgesia development. This test predicts the analgesic, anti-allodynic and antihyperalgesic effect of numerous effective clinical agents, including acetaminophen, NSAIDS such as aspirin and ibuprofen, and opioids, such as morphine.
Each rat is placed in a test chamber on a warm glass surface and allowed to acclimate for approximately 10 minutes. A radiant thermal stimulus (beam of light) is then focused through the glass onto the plantar surface of each hind paw in turn. The thermal stimulus is automatically shut off by a photoelectric relay when the paw is moved or when the cut-off time is reached (20 seconds for radiant heat at […]). An initial (baseline) response latency to the thermal stimulus is recorded for each animal prior to the injection of CFA. Twenty-four hours following intraplantar CFA injection, the response latency of the animal to the thermal stimulus is then re-evaluated and compared to the animal's baseline response time. […] Immediately following the post-CFA latency assessment, test compound or vehicle (usually Solutol, hydroxypropyl methylcellulose, hydroxypropyl beta-cyclodextrin or PEG-400) is administered i.p. or p.o. to rats. Post-compound treatment withdrawal latencies are assessed at fixed time intervals, typically 30, 60 and 120 minutes. The percent reversal (% R) of hypersensitivity is calculated according to the following formula: % Reversal=(Treatment Response-CFA Response)/(Baseline Response-CFA Response)×100.

Compound	IC50 (canine TRPM8) [nM]	inhibition at 0.2 µM (canine TRPM8) [%]	IC50 (rat TRPM8; Freshly transfected cells) [nM]	IC50 (human TRPM8; Freshly transfected cells) [nM]	Percent Reversal (Sprague-Dawley rats; dose 3 p.o., treatment time 100 min) [%]	Percent Reversal (Sprague-Dawley rats; dose 5.6 p.o., treatment time 100 min) [%]	Percent Reversal (Sprague-Dawley rats; dose 10 p.o., treatment time 100 min)	Percent Reversal (Sprague-Dawley rats; dose 30 p.o., treatment time 100 min) [%]	IC50 (rat TRPM8; Cryopreserved cells) [nM]	IC50 (human TRPM8; Cryopreserved cells) [nM]	Percent Reversal (Sprague-Dawley rats; dose 1 p.o., treatment time 60 min) [%]	Percent Reversal (Sprague-Dawley rats; dose 3 p.o., treatment time 60 min) [%]	Percent Reversal (Sprague-Dawley rats; dose 5.6 p.o., treatment time 60 min) [%]	Percent Reversal (Sprague-Dawley rats; dose 30 p.o., treatment time 60 min) [%]
Cc1c(N(Cc2ccc(F)c(C(F)(F)F)c2)S(=O)(=O)c2ccc(C(=O)O)cc2)sc2ccccc12 [Compound 306, N-(3-Methyl-benzo[b]thiophen-2-yl)-N-(4-fluoro-3-trifluoromethyl-benzyl)-4-carboxy-benzenesulfonamide]	0.8	102	5	4	31	76	91% and 93%	59	–	–	–	–	–	–
Cc1c(N(Cc2ccc(OC(F)(F)F)cc2)S(=O)(=O)c2ccc(C(=O)O)cc2)sc2ccccc12 [Compound 496, N-(3-Methyl-benzo[b]thiophen-2-yl)-N-(4-trifluoromethoxy-benzyl)-4-carboxy-benzenesulfonamide]	0.8	101	–	–	–	–	–	–	1.8	1.4	9	−10	10	30
